Assay results as given in PMC7066191, “Exploiting loss of heterozygosity for allele-selective colorectal cancer chemotherapy” (Nature Communications, 2020).

Columns and labels:
Aurora kinase A = target: T1, Aurora kinase A (Homo sapiens, UniProt O14965); assay: KdELECT competition binding (DiscoverX), 11-point; nanoDSF thermal shift
T1 construct: gene AURKA

N-acetyltransferase 2 = target: T2, N-acetyltransferase 2 (Homo sapiens, UniProt P11245); assay: recombinant human NAT2 acetylation kinetics, LC-MS/MS of NAPA; format: biochemical
T2 construct: gene NAT2

ABL2 = ABL2 (Homo sapiens, UniProt P42684); assay: biochemical; design: scanMAX competition binding; kinase recovered on immobilized ligand quantified by qPCR, per cent of control; details: read-out: APA (POC)
Protocol: (§1) The binding affinities of APA and NAPA were evaluated in the scanMAX^sm Kinase Assay Panel (DiscoverX) at a final concentration of 10 µM. The compounds were tested for steric or allosteric binding to kinases in solution. The kinase was captured from the solution through an immobilized kinase-specific ligand and the kinase recovery was quantified. The amount of recovered kinase in the presence or absence of APA or NAPA was measured by quantitative PCR compared with the kinase capture in absence of the compound. Any compound reducing the binding affinity of a kinase to the respective immobilized ligand was scored as a potential hit, and the binding affinity of the compound toward a kinase is interpreted as the difference between the kinase recovery in the absence and presence of the compound. The inhibitory binding constants (Kd) of APA and NAPA to AURKA were evaluated in a KdELECT Kinase Assay (DiscoverX). […] Data acquisition followed the same methodology as for the scanMAX^sm Kinase Assay Panel. 6 Supplementary Figure 4. Kinome inhibition profiles of APA and its NAT2 metabolite NAPA identifies preferential APA kinase targets and differential binding to AURKA a The human kinome was assessed for binding affinity to APA and NAPA at 10 µM concentration (468 kinases in the scanMAX Kinase Assay Panel, DiscoverX). The family stratification of kinases is shown as a cladogram. Circles visualize the binding affinity of NAPA and APA towards each kinase with a higher intensity of blue corresponding to a higher binding affinity. […] One single data point from one experiment at a concentration 18.5 µM of APA was excluded as an outlier. c Thermal shift assay for human recombinant AURKA in the presence of APA and the selective inhibitor S1451. Melting temperatures were obtained by calculating the first derivative of the tryptophan fluorescence ratio at 350 nm and 330 nm and are shown for AURKA in the presence of S1451 (blue) and APA (yellow). Structural similarities between APA and kinase inhibitors[27] prompted investigation of protein kinases as mediators of APA toxicity. […] To enrich for kinase interactions that could explain the preferential killing of slow NAT2 cells, we compared the binding affinity of each kinase with APA and NAPA, selected 44 targets with preferential binding to APA and excluded kinases non-essential for cell survival and those not expressed in CRC cells (Supplementary Fig. 4A, Supplementary Table 4). […] The growth inhibition of RKO and DLD-1 following siRNA-mediated AURKA knockdown (Figs. 3c, d) reflected the relative efficiency of protein downregulation (Supplementary Fig. 5C, D). […] (Supplementary Fig. 4C). AURKA regulates cell cycle progression through association with other centrosome and spindle-associated proteins. Its activation requires auto-phosphorylation at Thr288 and ensures spindle pole integrity, centrosome duplication as well as adequate chromosomal alignment and segregation, while its inhibition leads to multipolar spindles with acentrosomal poles[28],[31]. […] S1451 reduced the fraction of pAURKA levels by >90% regardless of NAT2 expression (Fig. 3f and Su

CDKL2 = CDKL2 (Homo sapiens, UniProt Q92772); assay: biochemical; design: scanMAX competition binding; kinase recovered on immobilized ligand quantified by qPCR, per cent of control; details: read-out: APA (POC)
Protocol: as §1

CLK2 = CLK2 (Homo sapiens, UniProt P49760); assay: biochemical; design: scanMAX competition binding; kinase recovered on immobilized ligand quantified by qPCR, per cent of control; details: read-out: APA (POC)
Protocol: as §1

CSNK2A2 = CSNK2A2 (Homo sapiens, UniProt P19784); assay: biochemical; design: scanMAX competition binding; kinase recovered on immobilized ligand quantified by qPCR, per cent of control; details: read-out: APA (POC)
Protocol: as §1

DYRK1A = DYRK1A (Homo sapiens, UniProt Q13627); assay: biochemical; design: scanMAX competition binding; kinase recovered on immobilized ligand quantified by qPCR, per cent of control; details: read-out: APA (POC)
Protocol: as §1

EIF2AK4 = EIF2AK4 (Homo sapiens, UniProt Q9P2K8); assay: biochemical; design: scanMAX competition binding; kinase recovered on immobilized ligand quantified by qPCR, per cent of control; details: read-out: APA (POC)
Protocol: as §1

FLT4 = FLT4 (Homo sapiens, UniProt P35916); assay: biochemical; design: scanMAX competition binding; kinase recovered on immobilized ligand quantified by qPCR, per cent of control; details: read-out: APA (POC)
Protocol: as §1

GRK4 = GRK4 (Homo sapiens, UniProt P32298); assay: biochemical; design: scanMAX competition binding; kinase recovered on immobilized ligand quantified by qPCR, per cent of control; details: read-out: APA (POC)
Protocol: as §1

GSG2 = target: T3, GSG2 (Homo sapiens, UniProt Q8TF76); assay: biochemical; design: scanMAX competition binding; kinase recovered on immobilized ligand quantified by qPCR, per cent of control; details: read-out: APA (POC)
T3 construct: gene HASPIN
Protocol: as §1

KDR = KDR (Homo sapiens, UniProt P35968); assay: biochemical; design: scanMAX competition binding; kinase recovered on immobilized ligand quantified by qPCR, per cent of control; details: read-out: APA (POC)
Protocol: as §1

MAP3K11 = MAP3K11 (Homo sapiens, UniProt Q16584); assay: biochemical; design: scanMAX competition binding; kinase recovered on immobilized ligand quantified by qPCR, per cent of control; details: read-out: APA (POC)
Protocol: as §1

MINK1 = MINK1 (Homo sapiens, UniProt Q8N4C8); assay: biochemical; design: scanMAX competition binding; kinase recovered on immobilized ligand quantified by qPCR, per cent of control; details: read-out: APA (POC)
Protocol: as §1

PIP4K2B = PIP4K2B (Homo sapiens, UniProt P78356); assay: biochemical; design: scanMAX competition binding; kinase recovered on immobilized ligand quantified by qPCR, per cent of control; details: read-out: APA (POC)
Protocol: as §1

RPS6KA3_Dom1 = target: T4, RPS6KA3_Dom1 (Homo sapiens, UniProt P51812); assay: biochemical; design: scanMAX competition binding; kinase recovered on immobilized ligand quantified by qPCR, per cent of control; details: read-out: APA (POC)
T4 construct: gene RPS6KA3; Kin.Dom.1 N-terminal
Protocol: as §1

ABL2, sequence (P42684 whole entry): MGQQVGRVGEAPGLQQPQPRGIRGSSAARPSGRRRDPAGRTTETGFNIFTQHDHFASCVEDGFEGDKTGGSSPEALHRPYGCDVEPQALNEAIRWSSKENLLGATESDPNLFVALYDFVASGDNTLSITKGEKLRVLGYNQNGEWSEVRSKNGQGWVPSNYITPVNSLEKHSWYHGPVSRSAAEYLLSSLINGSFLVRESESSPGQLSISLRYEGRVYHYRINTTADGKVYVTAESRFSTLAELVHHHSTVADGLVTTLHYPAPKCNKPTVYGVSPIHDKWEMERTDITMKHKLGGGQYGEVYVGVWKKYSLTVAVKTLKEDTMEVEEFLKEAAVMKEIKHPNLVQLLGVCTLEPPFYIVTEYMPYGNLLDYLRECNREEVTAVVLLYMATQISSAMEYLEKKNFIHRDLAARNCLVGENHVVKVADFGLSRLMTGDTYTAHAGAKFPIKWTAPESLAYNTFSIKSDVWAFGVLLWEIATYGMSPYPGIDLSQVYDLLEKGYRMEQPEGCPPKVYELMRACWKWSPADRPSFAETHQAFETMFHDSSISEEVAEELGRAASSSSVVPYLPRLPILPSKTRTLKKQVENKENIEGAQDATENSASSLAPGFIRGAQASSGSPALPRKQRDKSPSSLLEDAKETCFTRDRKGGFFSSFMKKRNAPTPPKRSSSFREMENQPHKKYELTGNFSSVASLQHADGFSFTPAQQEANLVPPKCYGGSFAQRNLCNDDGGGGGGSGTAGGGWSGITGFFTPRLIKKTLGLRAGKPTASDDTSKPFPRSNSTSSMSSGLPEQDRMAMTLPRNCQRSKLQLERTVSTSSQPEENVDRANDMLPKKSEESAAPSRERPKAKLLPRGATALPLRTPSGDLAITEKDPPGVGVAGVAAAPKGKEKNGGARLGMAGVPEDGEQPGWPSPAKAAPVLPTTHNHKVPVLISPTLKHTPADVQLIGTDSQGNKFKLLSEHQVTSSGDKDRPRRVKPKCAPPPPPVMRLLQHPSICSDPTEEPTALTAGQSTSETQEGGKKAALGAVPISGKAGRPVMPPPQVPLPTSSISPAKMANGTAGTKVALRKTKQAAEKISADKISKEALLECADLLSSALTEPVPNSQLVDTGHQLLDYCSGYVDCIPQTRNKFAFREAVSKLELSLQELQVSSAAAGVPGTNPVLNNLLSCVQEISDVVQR
KDR, sequence (P35968 whole entry): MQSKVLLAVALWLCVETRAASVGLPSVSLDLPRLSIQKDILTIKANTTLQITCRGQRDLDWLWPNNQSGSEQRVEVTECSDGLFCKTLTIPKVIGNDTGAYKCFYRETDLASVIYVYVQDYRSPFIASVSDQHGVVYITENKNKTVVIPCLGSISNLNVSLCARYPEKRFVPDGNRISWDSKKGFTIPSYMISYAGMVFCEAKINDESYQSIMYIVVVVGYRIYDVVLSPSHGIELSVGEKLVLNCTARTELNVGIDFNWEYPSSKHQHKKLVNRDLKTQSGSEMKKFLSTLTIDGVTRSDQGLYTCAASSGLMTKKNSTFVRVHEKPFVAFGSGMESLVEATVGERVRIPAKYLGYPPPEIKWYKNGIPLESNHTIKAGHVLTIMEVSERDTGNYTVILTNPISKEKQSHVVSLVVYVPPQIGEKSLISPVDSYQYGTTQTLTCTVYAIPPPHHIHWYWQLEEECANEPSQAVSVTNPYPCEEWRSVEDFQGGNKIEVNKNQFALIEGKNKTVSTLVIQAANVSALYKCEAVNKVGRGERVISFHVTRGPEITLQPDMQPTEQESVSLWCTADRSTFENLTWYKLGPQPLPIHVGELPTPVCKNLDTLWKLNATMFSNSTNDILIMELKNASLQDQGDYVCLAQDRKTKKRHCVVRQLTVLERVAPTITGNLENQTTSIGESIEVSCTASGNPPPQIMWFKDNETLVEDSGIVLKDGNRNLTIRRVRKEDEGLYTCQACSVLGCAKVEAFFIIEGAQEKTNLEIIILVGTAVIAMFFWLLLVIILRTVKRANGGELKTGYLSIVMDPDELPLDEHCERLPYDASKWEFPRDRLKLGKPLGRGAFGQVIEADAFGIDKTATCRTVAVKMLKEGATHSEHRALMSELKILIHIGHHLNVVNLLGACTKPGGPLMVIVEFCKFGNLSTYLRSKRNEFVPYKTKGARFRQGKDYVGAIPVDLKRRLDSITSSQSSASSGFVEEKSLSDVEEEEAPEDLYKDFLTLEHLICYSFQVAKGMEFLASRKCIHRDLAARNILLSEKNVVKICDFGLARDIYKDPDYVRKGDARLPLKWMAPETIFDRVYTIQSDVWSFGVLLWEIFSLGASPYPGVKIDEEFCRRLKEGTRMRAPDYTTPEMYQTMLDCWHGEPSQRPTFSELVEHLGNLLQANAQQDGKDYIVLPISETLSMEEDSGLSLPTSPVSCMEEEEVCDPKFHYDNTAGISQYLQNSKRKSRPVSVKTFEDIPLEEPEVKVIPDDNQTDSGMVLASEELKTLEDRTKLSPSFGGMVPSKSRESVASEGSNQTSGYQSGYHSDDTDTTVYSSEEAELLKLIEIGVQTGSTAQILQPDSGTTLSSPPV
T3 sequence (Q8TF76 whole entry): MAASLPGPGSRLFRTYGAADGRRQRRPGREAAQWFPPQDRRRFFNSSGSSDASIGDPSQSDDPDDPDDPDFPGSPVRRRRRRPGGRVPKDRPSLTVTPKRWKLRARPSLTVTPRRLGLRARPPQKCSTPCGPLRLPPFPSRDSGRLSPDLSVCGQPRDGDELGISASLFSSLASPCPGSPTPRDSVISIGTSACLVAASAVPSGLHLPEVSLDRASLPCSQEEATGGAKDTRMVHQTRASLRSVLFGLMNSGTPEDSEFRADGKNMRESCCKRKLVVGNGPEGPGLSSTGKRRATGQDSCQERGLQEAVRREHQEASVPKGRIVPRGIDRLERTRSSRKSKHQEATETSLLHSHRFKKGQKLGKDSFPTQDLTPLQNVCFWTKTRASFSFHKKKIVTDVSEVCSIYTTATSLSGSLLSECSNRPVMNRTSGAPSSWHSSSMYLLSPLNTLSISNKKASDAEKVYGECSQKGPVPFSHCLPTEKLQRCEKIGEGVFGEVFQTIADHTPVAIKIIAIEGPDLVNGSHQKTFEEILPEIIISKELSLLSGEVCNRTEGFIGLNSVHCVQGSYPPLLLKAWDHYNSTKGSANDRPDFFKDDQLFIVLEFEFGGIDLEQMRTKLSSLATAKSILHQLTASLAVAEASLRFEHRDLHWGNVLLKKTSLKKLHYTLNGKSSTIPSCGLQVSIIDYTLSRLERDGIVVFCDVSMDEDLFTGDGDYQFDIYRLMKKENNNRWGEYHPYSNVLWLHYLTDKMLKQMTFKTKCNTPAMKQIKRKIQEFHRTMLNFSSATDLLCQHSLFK
MAP3K11, sequence (Q16584 whole entry): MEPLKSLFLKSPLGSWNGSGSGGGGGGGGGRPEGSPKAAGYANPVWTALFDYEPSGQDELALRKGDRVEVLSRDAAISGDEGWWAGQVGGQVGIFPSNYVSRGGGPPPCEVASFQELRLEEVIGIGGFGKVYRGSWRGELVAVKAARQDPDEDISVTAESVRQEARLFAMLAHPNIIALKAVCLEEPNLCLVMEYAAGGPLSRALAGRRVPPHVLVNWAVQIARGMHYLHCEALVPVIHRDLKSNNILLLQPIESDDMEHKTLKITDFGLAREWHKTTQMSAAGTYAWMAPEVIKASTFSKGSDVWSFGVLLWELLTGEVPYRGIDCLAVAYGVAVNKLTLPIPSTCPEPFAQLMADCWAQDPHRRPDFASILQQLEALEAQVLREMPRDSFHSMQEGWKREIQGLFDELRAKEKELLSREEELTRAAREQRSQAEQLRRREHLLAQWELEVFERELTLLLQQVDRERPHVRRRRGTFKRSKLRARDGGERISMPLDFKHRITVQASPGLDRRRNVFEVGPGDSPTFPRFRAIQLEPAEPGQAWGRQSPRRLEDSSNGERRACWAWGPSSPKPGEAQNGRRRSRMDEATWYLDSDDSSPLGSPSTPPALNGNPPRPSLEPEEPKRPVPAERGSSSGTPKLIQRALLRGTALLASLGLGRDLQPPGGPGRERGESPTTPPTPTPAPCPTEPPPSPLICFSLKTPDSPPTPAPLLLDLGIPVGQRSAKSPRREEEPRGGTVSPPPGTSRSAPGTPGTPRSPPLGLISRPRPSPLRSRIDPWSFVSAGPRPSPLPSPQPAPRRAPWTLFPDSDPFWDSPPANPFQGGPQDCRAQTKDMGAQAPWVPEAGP
GRK4, sequence (P32298 whole entry): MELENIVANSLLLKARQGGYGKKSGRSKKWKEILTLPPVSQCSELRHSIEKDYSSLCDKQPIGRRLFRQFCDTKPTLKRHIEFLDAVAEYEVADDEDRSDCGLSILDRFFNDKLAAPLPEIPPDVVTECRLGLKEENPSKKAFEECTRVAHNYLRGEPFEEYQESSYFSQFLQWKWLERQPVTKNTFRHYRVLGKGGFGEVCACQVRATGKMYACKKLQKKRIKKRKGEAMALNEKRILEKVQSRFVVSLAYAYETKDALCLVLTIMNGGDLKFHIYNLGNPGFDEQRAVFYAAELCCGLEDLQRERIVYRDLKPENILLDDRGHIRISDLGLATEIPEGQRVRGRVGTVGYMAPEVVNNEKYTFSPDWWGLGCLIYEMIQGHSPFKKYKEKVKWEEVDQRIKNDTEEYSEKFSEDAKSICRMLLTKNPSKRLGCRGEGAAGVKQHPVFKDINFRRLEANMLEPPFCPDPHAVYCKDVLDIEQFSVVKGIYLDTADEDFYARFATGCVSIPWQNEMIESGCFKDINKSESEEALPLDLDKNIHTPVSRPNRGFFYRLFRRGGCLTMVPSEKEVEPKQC
T2 sequence (P11245 whole entry): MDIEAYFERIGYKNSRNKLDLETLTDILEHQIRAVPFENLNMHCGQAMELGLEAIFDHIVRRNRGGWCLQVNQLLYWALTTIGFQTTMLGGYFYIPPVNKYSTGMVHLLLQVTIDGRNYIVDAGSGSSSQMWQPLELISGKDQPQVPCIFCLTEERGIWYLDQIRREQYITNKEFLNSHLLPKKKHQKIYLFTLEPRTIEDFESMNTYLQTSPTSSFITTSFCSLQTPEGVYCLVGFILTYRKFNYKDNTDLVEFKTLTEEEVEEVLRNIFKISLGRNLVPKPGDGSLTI

**Q.** Which Kd (Aurora kinase A) does the source give for `COc1cc(Nc2cncc(-c3ccc(N)cc3)n2)cc(OC)c1OC` [APA, 6-(4-aminophenyl)-N-(3,4,5-trimethoxyphenyl)pyrazin-2-amine] here?
**A.** Its Kd is 13.5 µM.

**Q.** What about the “recombinant human NAT2 acetylation kinetics, LC-MS/MS of NAPA” value (N-acetyltransferase 2) of the same molecule?
**A.** The value was “Recombinant assays with human NAT1 and NAT2 further proved APA acetylation to be specifically mediated by NAT2”.

**Q.** And the remaining binding at 10 µM (ABL2)?
**A.** The remaining binding at 10 µM was 14%.

**Q.** And the remaining binding at 10 µM (CDKL2)?
**A.** The remaining binding at 10 µM was 42%.

**Q.** What about the remaining binding at 10 µM (CLK2) of the same molecule?
**A.** Its remaining binding at 10 µM is 27%.

**Q.** What about the remaining binding at 10 µM (CSNK2A2) of the same molecule?
**A.** Its remaining binding at 10 µM is 29%.

**Q.** What about the remaining binding at 10 µM (DYRK1A) of the same molecule?
**A.** The remaining binding at 10 µM was 7.8%.

**Q.** What about the remaining binding at 10 µM (EIF2AK4) of the same molecule?
**A.** The remaining binding at 10 µM was 38%.

**Q.** And the remaining binding at 10 µM (FLT4)?
**A.** The remaining binding at 10 µM was 35%.

**Q.** What about the remaining binding at 10 µM (GRK4) of the same molecule?
**A.** The remaining binding at 10 µM was 15%.

**Q.** And the remaining binding at 10 µM (GSG2)?
**A.** The remaining binding at 10 µM was 6.9%.

**Q.** And the remaining binding at 10 µM (KDR)?
**A.** The remaining binding at 10 µM was 7.1%.

**Q.** And the remaining binding at 10 µM (MAP3K11)?
**A.** The remaining binding at 10 µM was 22%.

**Q.** What about the remaining binding at 10 µM (MINK1) of the same molecule?
**A.** The remaining binding at 10 µM was 24%.

**Q.** And the remaining binding at 10 µM (PIP4K2B)?
**A.** Its remaining binding at 10 µM is 20%.

**Q.** And the remaining binding at 10 µM (RPS6KA3_Dom1)?
**A.** The remaining binding at 10 µM was 39%.
